In US9364537B2, “Transition metal porphyrin complexes and methods of treatment using same” (UNIVERSITY OF DAYTON, priority 2014, dated 2016):

What was measured:
calf thymus CT-DNA = assay: DNA titration by absorption spectra; format: binding; details: pH 7.2 buffer, ionic strength 0.1 M
Description: A sample of ZnPFPTMP from Part C was tested by various methods and techniques to determine how this compound may be utilized. In one test ZnPFPTMP was titrated into a DNA sample to determine ZnPFPTMP's affinity for binding to DNA. This test was conducted by measuring the absorption spectra of pH 7.2 buffer solutions (ionic strength=0.1 M) of ZnPFPTMP in the presence of increasing amounts of calf thymus CT-DNA.

[1] = tested on: Pseudomonas aeruginosa biofilm associated cells; assay: effect on biofilms in the dark; format: cell-based
[2] = tested on: circular plasmid DNA (pUC18); assay: photocleavage of plasmid DNA in the absence of oxygen, gel electrophoresis; format: biochemical; details: 10:1 base pair to complex ratio, wavelengths above 420 nm
Description: Referring now to FIG. 4, photocleavage studies based on a 10 to 1 base pairs to ZnPFPTMP was irradiated with a 420 nm filter and samples were taken at 10 minute intervals. In FIG. 3, gel electrophoresis of circular plasmid DNA (pUC18) in the absence (lane 1) and presence (lanes 2-10) of ZnPFPTMP at a 10:1 base pair to complex ratio is shown. Samples were irradiated with a 300 W mercury arc lamp equipped with a long pass filter, cutting off wavelengths below 420 nm in the absence of oxygen, and were taken at 10 minute intervals. Accordingly, ZnPFPTMP can be effective under hypoxic conditions.

[3] = tested on: Pseudomonas aeruginosa planktonic cells; assay: killing of planktonic cells in the absence of light, viable plate counts; format: cell-based; details: 37° C.
Description: ZnPFPTMP was added to cell suspensions at the concentrations shown in FIG. 5 (0 to 100 μM) and incubated at 37° C. in the absence of light. […]

[4] = tested on: circular plasmid DNA (pUC18); assay: photocleavage of plasmid DNA in the presence of oxygen, gel electrophoresis; format: biochemical; details: 50:1 base pair to complex ratio
Description: To appreciate the significance of the increased absorption of ZnPFPTMP in the PDT window, comparative photocleavage studies of plasmid DNA under normal conditions (i.e., in the presence of oxygen) were conducted for ZnPFPTMP and its free-base porphyrin. […] In FIG. 3, gel electrophoresis of circular plasmid DNA (pUC18) in the absence (lane 1) and presence (lanes 2-10) of unmetallated porphyrin (A) and ZnPFPTMP (B) at a 50:1 base pair to complex ratio are shown. Samples were irradiated with a 300 W mercury arc lamp equipped with a long pass filter, cutting off wavelengths below 550 nm, and were taken at 2 minute intervals.
ZnPFPTMP is very reactive at such low energy wavelengths of light.

Staphylococcus aureus = assay: killing of bacteria in the absence of light, plated to determine viability; format: cell-based
Excerpt: Additionally, the ability of ZnPFPTMP to affect killing of bacteria in the absence of light was further tested against the Gram-positive pathogenic bacterium Staphylococcus aureus. This bacterium was chose to evidence the ability of the porphyrins of general formula (I) to treat/kill methicillin-resistant Staphylococcus aureus (MRSA) without exposing the scientists to MRSA directly. Moreover, it is believed that the mechanism used by the porphyrins of general formula (I) is unlikely to involve the methicillin resistance mechanism. S. aureus cells grown in LB medium were washed and re-suspended on 0.2% peptone and exposed to either 1.5 μM or 3.0 μM Zeke in sterile water. Cell suspensions were sampled every 30 minutes for 3 hours and plated to determine viability. […] At 1.5 μM Zeke's complete elimination of viable cells of S. aureus took only two hours.

**Q.** For “meso-5,10,15-tris(N-methyl-4-pyridyl)-20-(pentafluorophenyl)porphyrinatozinc(II), tris-p-toluene sulfonate [ZnPFPTMP]”, which “binding constants to DNA” value (calf thymus CT-DNA) is on record?
**A.** The value was “greater than 10^6”.

**Q.** What about the biofilm formation ([1]; added to cell suspensions incubated in the dark) of the same substance?
**A.** The biofilm formation was “Biofilms were prevented”.

**Q.** What about the “log reduction in preformed biofilms” value ([1]; preformed biofilms exposed in the dark (data not shown)) of the same substance?
**A.** Its value is 2.7 log.

**Q.** What about the “photonicking of DNA in the absence of oxygen” value [2] of the same substance?
**A.** The value was “effective at photonicking DNA”.

**Q.** What about the “killing at two hours” value ([3]; 2 hours) of the same substance?
**A.** The value was “substantial killing”.

**Q.** What about the “MLC (minimum lethal concentration)” value ([3]; 7 hours, no survivors) of the same substance?
**A.** Its value is 25 µM.

**Q.** What about the “band intensity compared to free-base porphyrin” value ([4]; after 2 minutes versus free-base porphyrin after 20 minutes, above 550 nm) of the same substance?
**A.** Its value is “more intense bands”.

**Q.** And the “photonicking of plasmid DNA” value ([4]; after two minutes, wavelengths above 550 nm, oxygen present)?
**A.** The value was “effective compete photonicking”.

**Q.** And the “time to complete elimination of viable cells” value (Staphylococcus aureus; 1.5 μM)?
**A.** The value was “two”.

**Q.** What about the “log reduction in viable cells” value (Staphylococcus aureus; 3.0 μM, after 30 min) of the same substance?
**A.** Its value is 5.5 log.

**Q.** And the viable cells remaining (Staphylococcus aureus; 3.0 μM, after 60 min)?
**A.** The viable cells remaining was “no viable cells remained”.
